Values joined by “and” are separate entries in the source; they are usually repeats but may differ in a detail not shown here. Equal entries are not always repeated.

One compound from PMC8406801, “Naringenin Inhibits Platelet Activation and Arterial Thrombosis Through Inhibition of Phosphoinositide 3-Kinase and Cyclic Nucleotide Signaling” (Frontiers in Pharmacology, 2021) can be followed below.

This test relates to Akt Thr308 phosphorylation. The experiment in a line: Ex vivo immunoblotting of phospho-Akt (Thr308) in ADP-stimulated PRP of treated rats. The arrangement: species or system rat. Conditions: for p-Akt Thr308 / t-Akt (Fold to Control) / p-Akt Thr308 / t-Akt (raw data): ex vivo, Figure 8D. The procedure:
Male SD rats were randomly divided into 5 groups with 6 rats in each group. […] Sixty minutes after the last sample treatment, blood was drawn from the abdominal aorta of rats into the siliconized vacutainers containing 1:9 (v/v) 3.8% sodium citrate. The collected blood was centrifuged at 100 × g for 10 min at room temperature to obtain PRP. […] The platelet counts of PRP were adjusted to 4×10^8 cells/mL using PPP. PRP was incubated for 5 min at 37°C and then stimulated by ADP (5 μM). The maximum platelet aggregation rate was determined as mentioned above.
For in vitro platelet aggregation, aliquots of washed platelets were preincubated with vehicle or various concentrations of naringenin for 5 min and stimulated with ADP (10 μmol/L) under stirring at 37°C for 5 min. For ex vivo platelet aggregation, PRP was incubated at 37°C for 5 min and stimulated with ADP (5 μmol/L) under stirring at 37 °C. The platelet aggregation was terminated by adding ethylenediaminetetraacetic acid (EDTA; 10 mM). Total protein was prepared using RIPA lysis buffer and protein content was determined by bicinchoninic acid (BCA) protein assay kit. Equal amounts of platelet proteins (30 μg) were separated on 10% SDS polyacrylamide gel electrophoresis (SDS-PAGE) and then transferred to poly vinylidene difluoride (PVDF) membranes and subjected to western blot. Blots were blocked with TBS-Tween 20 containing 5% BSA and probed with primary antibodies diluted in blocking solution at 4°C overnight followed by incubation with the corresponding HRP secondary antibodies. The protein bands were visualized using enhanced chemiluminescence (ECL).
Blood was collected and PRP was obtained after the last treatment. Platelet aggregation was induced by ADP (5 μmol/L) (A). Data are expressed as means ± SD (n = 6). After ADP stimulation, platelet proteins were then extracted and analyzed by immunoblotting using PI3Kp110β antibody (B) and phospho-specific antibodies such as Akt^Ser473 (C), Akt^Thr308 (D) and ERK1/2^Thr202/Tyr204 (E). Total level of GAPDH was measured on each sample as a loading control. The blots shown are representative of three separate experiments. The relative protein expression levels were quantified by ImageJ 1.47v software. The level of relative protein expression obtained with vehicle control was taken as 1. R represents the level of relative protein expression in resting platelets. Data are expressed as means ± SD (n = 3). *p < 0.05, **p < 0.01, ***p < 0.001 compared with the vehicle control group (Con).
To further investigate the antiplatelet mechanisms of naringenin ex vivo, several signaling molecules such as PI3Kp110β, Akt and ERK were detected. After oral administration of naringenin (200, 400, and 800 mg/kg) to rats for 7 days, rat PRP was prepared and stimulated by ADP (5 μmol/L), and platelets were lysed to determine protein phosphorylation levels using western blot.
On the technique in general: A western blot detects proteins with antibodies after separation by electrophoresis.

For the compound `O=C1C[C@@H](c2ccc(O)cc2)Oc2cc(O)cc(O)c21` [Naringenin], the “p-Akt Thr308 / t-Akt (Fold to Control)” value reads like this: (naringenin 200mg/kg) 0.5157 and 0.5526 and 0.5291; (naringenin 400mg/kg) 0.3273 and 0.3649 and 0.3395; (naringenin 800mg/kg) 0.3636 and 0.3541 and 0.3985. For the same compound, the “p-Akt Thr308 / t-Akt (raw data)” value by setting is: (naringenin 200mg/kg) 0.4340 and 0.4650 and 0.4452; (naringenin 400mg/kg) 0.2755 and 0.3071 and 0.2857; (naringenin 800mg/kg) 0.3060 and 0.2979 and 0.3354. The “phosphorylation of Akt at Thr308 in rat PRP ex vivo” value (rats, oral 200, 400, and 800 mg/kg for 7 days, ADP 5 μmol/L) is “significantly suppressed”.
